Results: PubChem BioAssay (NCI)
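All cell lines were grown in 96-well plates and treated with compound for 48 hours. TGI: concentration producing complete growth inhibition.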

Experiments:
Assay in all cases: NCI-60 cell line screen, 48 h
[1] = system: M19-MEL melanoma
[2] = system: SK-MEL-5 melanoma
[3] = system: RXF-631 renal
[4] = system: OVCAR-4 ovarian
[5] = system: SNB-78 CNS
[6] = system: 786-0 renal
[7] = system: SK-MEL-28 melanoma
[8] = system: DMS 114 small cell lung
[9] = system: DLD-1 colon
[10] = system: LXFL 529 NSCLC
[11] = system: XF 498 CNS
[12] = system: KM20L2 colon
[13] = system: HOP-18 NSCLC
[14] = system: DMS 273 small cell lung

| SMILES | TGI [1] | TGI [2] | TGI [3] | TGI [4] | TGI [5] | TGI [6] | TGI [7] | TGI [8] | TGI [9] | TGI [10] | TGI [11] | TGI [12] | TGI [13] | TGI [14] |
| --- | --- | --- | --- | --- | --- | --- | --- | --- | --- | --- | --- | --- | --- | --- |
| CC/C(SC)=[N+](\C)[O-] | > 100 µM | > 100 µM | > 100 µM | > 100 µM | > 100 µM | > 100 µM | > 100 µM | > 54.2 µM | > 69 µM | > 100 µM | > 100 µM | > 100 µM | > 100 µM | – |
| CN1N=C2c3ccccc3CC[C@H]2C1c1cccc(O)c1 (stereo partly specified) | > 100 µM | – | – | > 100 µM | – | > 100 µM | > 100 µM | > 100 µM | > 100 µM | > 100 µM | > 100 µM | > 100 µM | – | > 100 µM |
| COC(=O)N/N=C(/Cc1occc(=O)c1O)C(=O)Nc1ccc([N+](=O)[O-])cc1[N+](=O)[O-] | > 100 µM | > 100 µM | – | > 100 µM | > 100 µM | > 100 µM | > 100 µM | > 100 µM | > 100 µM | > 100 µM | > 100 µM | > 100 µM | > 100 µM | > 100 µM |
| CC(C)C1COC(c2ccc3ccccc3c2-c2c(O[Si](C)(C)C(C)(C)C)ccc3ccccc23)=N1 (stereo unspecified) | 33.7 µM | 31.8 µM | 61.3 µM | 36.1 µM | 21.4 µM | 32.4 µM | 33.8 µM | 30.9 µM | 31.4 µM | 28.7 µM | 28.9 µM | 37.2 µM | – | 42.8 µM |
| COC1=CC(=O)C2C(C1=O)C(c1ccc(OC)c(OC)c1)[C@H]2C (stereo partly specified) | 42.1 µM | 61.4 µM | 32.7 µM | 30.6 µM | > 100 µM | 31.9 µM | 39.3 µM | 42.3 µM | 31.5 µM | 33.3 µM | 29.9 µM | > 100 µM | 35.1 µM | 60.3 µM |
| CCN(CC)CCCNc1ncc(C)c2c1c1ccc3c(O)cccc3c1n2C | – | 13.4 µM | – | 3.45 µM | > 61 µM | 2.19 µM | 17.5 µM | 2.68 µM | 3.85 µM | 3.06 µM | 29.5 µM | 10.5 µM | 16.3 µM | 2.14 µM |
| COc1ccc2c(c1)OC(c1ccccc1O)CC2=O (stereo unspecified) | – | > 100 µM | – | > 100 µM | 84.8 µM | > 100 µM | > 100 µM | – | > 100 µM | 71.5 µM | > 100 µM | > 100 µM | > 100 µM | – |
| CCCc1c(C(=O)OCC)[nH]c(C(=O)CCC(=O)c2[nH]c(C(=O)OCC)c(CCC)c2C(=O)OCC)c1C(=O)OCC | > 100 µM | > 100 µM | – | > 100 µM | > 100 µM | > 100 µM | > 100 µM | > 100 µM | > 100 µM | > 100 µM | > 100 µM | > 100 µM | > 100 µM | > 100 µM |
| Nc1ncnc2c1ncn2C1CC(OC2CCCCO2)C(CO)O1 (stereo unspecified) | > 100 µM | – | – | > 100 µM | > 100 µM | > 100 µM | > 100 µM | > 100 µM | > 100 µM | > 100 µM | > 100 µM | > 100 µM | > 100 µM | > 100 µM |
| C/C(=N/NC(N)=S)C(CN(C)C)C(C1=C(O)c2ccccc2OC1)c1ccccc1 (stereo unspecified) | > 100 µM | > 100 µM | – | > 100 µM | > 100 µM | > 100 µM | > 100 µM | > 100 µM | > 100 µM | > 100 µM | > 100 µM | > 100 µM | > 100 µM | > 100 µM |
| CCOC(=O)Nn1c(C)cc(C(=O)OC)c1C | > 100 µM | > 100 µM | – | – | > 100 µM | > 100 µM | > 100 µM | > 100 µM | > 100 µM | > 100 µM | > 100 µM | > 100 µM | – | > 100 µM |
| Cc1cc(=O)[nH]c(NNC(C#N)c2ccco2)n1 (stereo unspecified) | > 100 µM | > 100 µM | – | > 100 µM | > 100 µM | > 100 µM | > 100 µM | > 100 µM | > 100 µM | > 100 µM | – | > 100 µM | > 100 µM | > 100 µM |
